This note sets out measurements from patent publication US12662707B2, “MYC amplification drives resistance to pan-RAS inhibitors in pancreatic cancer” (The Trustees of Columbia University in the City of New York, priority 2024, dated 2026).

The test system of one test is human PDAC organoids. The experiment in a line: Organoid drug treatment and viability assay. Format: cell-based. As to conditions: Matrigel-embedded human PDAC organoids; 6 days. How it is done: Organoids were cultured at 37° C. in 5% CO2. Cells were seeded in growth factor reduced Matrigel (Corning; Cat. #356231) domes and incubated with human organoid medium formulated as follows: Advanced DMEM/F12-based-conditioned medium, 1×B27 supplement, 10 mM HEPES, 2 mM GlutaMAX, 10 mM nicotinamide, 1.25 mM N-acetylcysteine, 50 ng/mL mEGF, 100 ng/mL hFGF10, […] hGastrin I, 500 nM A83-01, Noggin 100 ng/mL, 1×Wnt-3A conditioned 10% FBS DMEM (50% by volume) and 1×R-spondin Conditioned Basal Medium (10% by volume)^52,53
Organoids were dissociated using TrypLE Express (Thermo Fisher, Cat. #12604054) and cells were seeded into ultra-low attachment 384-well plates at 1×10^3 cells per well into […] of culture media, consisting of 10% Matrigel and 90% human organoid medium. […] Cell viability was assessed 6 days post-treatment using a Cell-TiterGlo 3D Cell Viability assay (Promega, G9683), according to the manufacturer's instructions. […] was read using a FLUOstar Omega microplate reader. Technical triplicates were analyzed for each biological replicate and a total of three biological replicates were done for each cell line. CTG assay readouts were plotted as a function of log molar [inhibitor] and a 4-parameter sigmoidal concentration response model was fitted to the data. […]

Test [1] has as its system KPCY-derived PDAC cell line (6499c4) allografts. The experiment in a line: KPCY 6499c4 syngeneic allograft studies. Format: in vivo, mouse. The protocol:
All murine allograft studies and procedures related to animal handling, care and treatment were conducted in compliance with all applicable regulations and guidelines of the Institutional Animal Care and Use Committee (IACUC). Female C57BL/6J (strain 000664) mice aged 6-8 weeks from the Jackson Laboratory (Bar Harbor, ME USA) were used for these studies.
In order to generate subcutaneous (SC) allograft tumors, each mouse was inoculated in the right flank with 3×10^5 of KPCY 6499c4 tumor cells in 0.1 ml of Matrigel:PBS (1:1). Treatments were started when the average tumor size reached 140 mm^3. Tumor size was measured at two dimensions using a digital caliper, and the tumor volume in mm^3 was calculated using the formula: Volume=((width)2×length)/2. Mice on studies were weighed and tumors were measured 2 times a week.
To generate orthotopic allograft tumors, 5×10^4 KPCY 6499c4 tumor cells in 20 μL PBS/Matrigel mixtures (1:1) were implanted directly into the mouse pancreas through a laparoscopic incision. Treatments were started when the average tumor size reached […]. Body weights were measured and tumor growth was monitored by ultrasound twice weekly.
Tumor-bearing animals were randomized, assigned into groups (n=9-10/group), and treated daily via oral gavage with Vehicle or RMC-7977 (10 mg/kg, q.d.). For SC KPCY study, survival endpoint was defined as: tumor volume reaching 2000 mm^3 or mice showing any clinical signs, including severe ulceration. For orthotopic KPCY study, survival endpoint was defined as (1) mice showing any clinical signs including hunching or fluid in the abdomen, or (2) tumor dimensions exceeding the imaging frame of the ultrasound. Body weights were measured twice a week during the study. Tissue was harvested either at 4 hours or 24 hours after last dose and preserved as previously described (See Xenograft studies section).
To stain tissues collected from the KPCY allograft model, a Biocare IntelliPATH automation system was used, and primary antibodies were detected with the MACH4-HRP-polymer Detection System (Biocare, MRH534). Stained slides were scanned and digitized with a TissueScope LE (Huron Digital Pathology) whole slide scanner at 20× magnification. Image analysis was performed using HALO software from Indica Labs.

In the next test the test system is Myc protein levels. The experiment in a line: Western blot of Myc in resistant and naive KPC cell lines. Format: cell-based, murine. The note with it: 100 nM, 24 hours. The protocol: Cells were seeded at 7.5×10^5-4×10^6 cells per well in 6-well plates or 100 mm dishes in growth medium. After overnight incubation, indicated compound (RMC-7977, IAG933 or DMSO (0.1% v/v)) were added and incubated for the indicated time points. Cells were washed twice with ice-cold PBS and lysed with NP-40 lysis buffer (Thermo Fisher Scientific, J60766), MSD Tris Lysis Buffer (MSD, R60TX-2), RIPA buffer (50 mM TRIS-HCl, pH 7.5, 150 mM NaCl, 1% NP-40, 0.5% sodium deoxycholate, 0.1% SDS) or a lysis buffer containing 1% Triton X-100, 20 mM Tris-HCl, 150 mM NaCl, and 1 mM EDTA. All lysis buffers were supplemented with protease and phosphatase inhibitors. Lysates were scraped and collected before centrifugation at 21,000×g for 10 minutes at 4° C. The protein-containing supernatants were quantified by BCA assay (Pierce, 23225) and equal quantities of protein were denatured with LDS and reducing agent at 95° C. Samples were resolved on 12% or 4-12% Bis-Tris polyacrylamide gels, then transferred to a nitrocellulose or PVDF membrane using the iBlot 2.0 system or wet transfer. Membranes were blocked in Intercept TBS buffer (LiCor, 927-60001) or 3-5% milk before probing with primary antibodies overnight at 4° C. Secondary antibodies were added as appropriate, and the membranes were imaged on a LiCor Odyssey imager. […]

[2] abbreviates: orthotopic CDA model, four hours after treatment.

Take `CCn1c(-c2cc(N3CCN(C4CC4)CC3)cnc2[C@H](C)OC)c2c3cc(ccc31)-c1csc(n1)C[C@H](NC(=O)[C@H]1[C@@H]3COC[C@@H]31)C(=O)N1CCC[C@H](N1)C(=O)OCC(C)(C)C2` [RMC-7977]: in the test on human PDAC organoids, the “potency in concentration-response cell viability assays” value is “low nanomolar potency”. The tumor regressions entry in test [1] (10 mg/kg q.d.) was “without inducing significant regressions”. In addition, in test [1] (setting [2]), the apoptosis in tumors result is “increased apoptosis” and the “pERK levels in tumors” value is on record as “reduced pERK levels”. In addition, the tumor growth result in test [1] (subcutaneous or orthotopic, immunocompetent C57Bl/6 mice, 10 mg/kg q.d.) is “diminished tumor growth”. Besides, the overall survival result in test [1] (subcutaneous or orthotopic, 10 mg/kg q.d.) is given as “extended overall survival”. Besides, the Myc protein levels result with Myc protein levels (two RMC-7977 Naive lines) is reported as “fully inhibited”. For the same molecule, in the test with Myc protein levels (two Resistant lines), the Myc protein levels entry is “incompletely reduced”.
